By CC50 is commonly meant the concentration giving 50% cytotoxicity. A word on the IC50: it is the concentration that inhibits the measured activity by half.

The subject of one data set is PC-3. Put plainly: Antiproliferative activity against PSMA negative human PC-3 cells assessed as effect on cell viability incubated for 72 hrs by MTT assay. The class given is functional. (In general: Tetrazolium assays rely on reduction of a dye to a coloured formazan, in cell work by metabolically active cells.)
Data set [1] is described as follows: Antiproliferative activity against PSMA negative human RWPE-1 cells assessed as effect on cell viability incubated for 72 hrs by MTT assay. The class given is toxicity, cell-based. The settings on record: RWPE-1 cells (PSMA negative).
A further data set deals with LNCaP. As to the kind of experiment: Antiproliferative activity against human LNCaP cells with high PSMA expression assessed as effect on cell viability incubated for 72 hrs by MTT assay. In kind it is functional, cell-based.
For a further data set, the system named is CWR22R. Put plainly: Antiproliferative activity against human 22Rv1 cells with high PSMA expression assessed as effect on cell viability incubated for 72 hrs by MTT assay. The class given is functional, cell-based. The settings on record: 22Rv1, 72 h.

A value given as a limit tells only on which side of the number the result lay.

Consider `O=C(O)CC[C@H](NC(=O)N[C@@H](CCCCNC(=O)CCCC(=O)N1CCN(C(=O)c2cc(Cc3n[nH]c(=O)c4ccccc34)ccc2F)CC1)C(=O)O)C(=O)O`, for which the CC50 in the data set with PC-3 is more than 1000 µM. Further, the CC50 at 72 h in data set [1] is more than 1000 µM. In addition, the IC50 in the data set with LNCaP was determined as 96.6 µM; in the data set with CWR22R, 139 µM.
For the molecule `O=C(O)CC[C@H](NC(=O)N[C@@H](CCCCNC(=O)CCSSCCC(=O)N1CCN(C(=O)c2cc(Cc3n[nH]c(=O)c4ccccc34)ccc2F)CC1)C(=O)O)C(=O)O`, the CC50 with PC-3 is more than 1000 µM. For the same molecule, the CC50 at 72 h in data set [1] is more than 1000 µM. Further, the half-inhibitory concentration (IC50) is 259 µM in the data set with LNCaP and 432 µM in the data set with CWR22R.
For the molecule `O=C(O)CC[C@H](NC(=O)N[C@@H](CCCCNC(=O)CCOC(=O)N1CCN(C(=O)c2cc(Cc3n[nH]c(=O)c4ccccc34)ccc2F)CC1)C(=O)O)C(=O)O`, the CC50 with PC-3 is more than 1000 µM. For the same molecule, in data set [1], the CC50 at 72 h is more than 1000 µM. Further, the IC50 in the data set on LNCaP came to 182 µM; in the data set on CWR22R, 289 µM.
`O=C(O)CC[C@H](NC(=O)N[C@@H](CCCCNC(=O)c1cc(Cc2n[nH]c(=O)c3ccccc23)ccc1F)C(=O)O)C(=O)O`: the CC50 in the data set on PC-3 was more than 1000 µM. Besides, in data set [1], the CC50 at 72 h was more than 1000 µM. Besides, the figures for the IC50 in the data set with LNCaP and in the data set on CWR22R were 283 µM and 455 µM, respectively.
As to `O=C(O)CC[C@H](NC(=O)N[C@@H](CCCCNC(=O)CCC(=O)N[C@@H](Cc1ccccc1)C(=O)N1CCN(C(=O)c2cc(Cc3n[nH]c(=O)c4ccccc34)ccc2F)CC1)C(=O)O)C(=O)O`, the CC50 in the data set with PC-3 was more than 1000 µM. In addition, the CC50 at 72 h in data set [1] is more than 1000 µM. Besides, the IC50 with LNCaP was determined as 152 µM; in the data set with CWR22R, 132 µM.
Turning to `O=C(O)CC[C@H](NC(=O)N[C@@H](CCCCNC(=O)CCCNC(=O)N1CCN(C(=O)c2cc(Cc3n[nH]c(=O)c4ccccc34)ccc2F)CC1)C(=O)O)C(=O)O`, the CC50 with PC-3 was more than 1000 µM. For the same molecule, the CC50 at 72 h in data set [1] is more than 1000 µM. Moreover, the IC50 with LNCaP turned out to be 300 µM; in the data set with CWR22R it was 337 µM.
In the case of `O=C(O)CC[C@H](NC(=O)N[C@@H](CCCCNC(=O)CCC(=O)N[C@@H](C(=O)N1CCN(C(=O)c2cc(Cc3n[nH]c(=O)c4ccccc34)ccc2F)CC1)c1ccccc1)C(=O)O)C(=O)O`, in the data set on PC-3, the half-maximal cytotoxic concentration (CC50) is more than 1000 µM. Also, the CC50 at 72 h in data set [1] is more than 1000 µM. Moreover, the concentration for half-maximal inhibition (IC50) turned out to be 173 µM with LNCaP and 162 µM in the data set on CWR22R.
Turning to `O=C(O)CC[C@H](NC(=O)N[C@@H](CCCCNC(=O)CCC(=O)N[C@@H](CO)C(=O)N1CCN(C(=O)c2cc(Cc3n[nH]c(=O)c4ccccc34)ccc2F)CC1)C(=O)O)C(=O)O`, the CC50 in the data set with PC-3 was more than 1000 µM. The CC50 at 72 h in data set [1] is more than 1000 µM. Further, the figures for the IC50 in the data set with LNCaP and with CWR22R were 202 µM and 209 µM, respectively.
For the molecule `O=C(O)CC[C@H](NC(=O)N[C@@H](CCCCNC(=O)CCC(=O)NCC(=O)N1CCN(C(=O)c2cc(Cc3n[nH]c(=O)c4ccccc34)ccc2F)CC1)C(=O)O)C(=O)O`, the CC50 in the data set with PC-3 is more than 1000 µM. For the same molecule, in data set [1], the CC50 at 72 h is more than 1000 µM. Also, the IC50 in the data set with LNCaP turned out to be 147 µM; in the data set on CWR22R, 126 µM.
Consider `O=C(O)CC[C@H](NC(=O)N[C@@H](CCCCNC(=O)CCC(=O)NCCCC(=O)N1CCN(C(=O)c2cc(Cc3n[nH]c(=O)c4ccccc34)ccc2F)CC1)C(=O)O)C(=O)O`, for which the CC50 in the data set on PC-3 is more than 1000 µM. Besides, the CC50 at 72 h in data set [1] was more than 1000 µM. Further, the values for the 50% inhibitory concentration (IC50) with LNCaP and with CWR22R were 162 µM and 134 µM, respectively.
As to `CN(CC(=O)N1CCN(C(=O)c2cc(Cc3n[nH]c(=O)c4ccccc34)ccc2F)CC1)C(=O)CCC(=O)NCCCC[C@H](NC(=O)N[C@@H](CCC(=O)O)C(=O)O)C(=O)O`, in the data set on PC-3, the cytotoxic concentration (CC50) was more than 1000 µM. Further, the CC50 at 72 h in data set [1] is more than 1000 µM. Further, the results for the IC50 in the data set on LNCaP and with CWR22R were 136 µM and 129 µM, respectively.
Consider `CC(C)[C@H](NC(=O)CCC(=O)NCCCC[C@H](NC(=O)N[C@@H](CCC(=O)O)C(=O)O)C(=O)O)C(=O)N1CCN(C(=O)c2cc(Cc3n[nH]c(=O)c4ccccc34)ccc2F)CC1`, for which the 50% cytotoxic concentration (CC50) with PC-3 is more than 1000 µM. The CC50 at 72 h in data set [1] is more than 1000 µM. Besides, the half-inhibitory concentration (IC50) in the data set on LNCaP turned out to be 111 µM; in the data set with CWR22R, 122 µM.
As to `CC(C)[C@@H](NC(=O)CCC(=O)NCCCC[C@H](NC(=O)N[C@@H](CCC(=O)O)C(=O)O)C(=O)O)C(=O)N1CCN(C(=O)c2cc(Cc3n[nH]c(=O)c4ccccc34)ccc2F)CC1`, the CC50 with PC-3 is more than 1000 µM. Moreover, in data set [1], the CC50 at 72 h was more than 1000 µM. For the same molecule, the figures for the IC50 with LNCaP and in the data set with CWR22R were 121 µM and 128 µM, respectively.
`CSCC[C@H](NC(=O)CCC(=O)NCCCC[C@H](NC(=O)N[C@@H](CCC(=O)O)C(=O)O)C(=O)O)C(=O)N1CCN(C(=O)c2cc(Cc3n[nH]c(=O)c4ccccc34)ccc2F)CC1`: the CC50 in the data set with PC-3 was more than 1000 µM. The CC50 at 72 h in data set [1] is more than 1000 µM. Moreover, the IC50 stood at 190 µM in the data set with LNCaP and 175 µM in the data set on CWR22R.
Turning to `CC(C)C[C@H](NC(=O)CCC(=O)NCCCC[C@H](NC(=O)N[C@@H](CCC(=O)O)C(=O)O)C(=O)O)C(=O)N1CCN(C(=O)c2cc(Cc3n[nH]c(=O)c4ccccc34)ccc2F)CC1`, the 50% cytotoxic concentration (CC50) in the data set on PC-3 was more than 1000 µM. The CC50 at 72 h in data set [1] is more than 1000 µM. Also, the IC50 in the data set on LNCaP amounted to 130 µM; in the data set on CWR22R, 113 µM.
Regarding `O=C(O)CC[C@H](NC(=O)N[C@@H](CCCCNC(=O)CCNC(=O)N1CCN(C(=O)c2cc(Cc3n[nH]c(=O)c4ccccc34)ccc2F)CC1)C(=O)O)C(=O)O`, the CC50 in the data set on PC-3 is more than 1000 µM. For the same molecule, the half-maximal cytotoxic concentration (CC50) at 72 h in data set [1] was more than 1000 µM. In addition, the IC50 in the data set with LNCaP was determined as 273 µM; in the data set on CWR22R it was 327 µM.
As to `O=C(O)CC[C@H](NC(=O)N[C@@H](CCCCNC(=O)CCCCCCC(=O)N1CCN(C(=O)c2cc(Cc3n[nH]c(=O)c4ccccc34)ccc2F)CC1)C(=O)O)C(=O)O`, in the data set on PC-3, the CC50 is more than 1000 µM. Besides, in data set [1], the CC50 at 72 h is more than 1000 µM. Besides, the IC50 with LNCaP worked out at 99.9 µM; in the data set with CWR22R, 137 µM.
For the molecule `O=C(O)CC[C@H](NC(=O)N[C@@H](CCCCNC(=O)CCCNC(=O)CCCCCCC(=O)N1CCN(C(=O)c2cc(Cc3n[nH]c(=O)c4ccccc34)ccc2F)CC1)C(=O)O)C(=O)O`, the CC50 in the data set with PC-3 is more than 1000 µM. Further, in data set [1], the CC50 at 72 h is more than 1000 µM. For the same molecule, the IC50 worked out at 238 µM with LNCaP and 208 µM in the data set with CWR22R.
Take `O=C(O)CC[C@H](NC(=O)N[C@@H](CCCCNC(=O)CCN1CCN(C(=O)c2cc(Cc3n[nH]c(=O)c4ccccc34)ccc2F)CC1)C(=O)O)C(=O)O`: in the data set with PC-3, the CC50 is more than 1000 µM. The CC50 at 72 h in data set [1] was more than 1000 µM. Also, the figures for the IC50 with LNCaP and in the data set on CWR22R were 284 µM and 286 µM, respectively.
In the case of `C[C@H](NC(=O)CCC(=O)NCCCC[C@H](NC(=O)N[C@@H](CCC(=O)O)C(=O)O)C(=O)O)C(=O)N1CCN(C(=O)c2cc(Cc3n[nH]c(=O)c4ccccc34)ccc2F)CC1`, the CC50 with PC-3 is more than 1000 µM. The CC50 at 72 h in data set [1] was more than 1000 µM. In addition, the IC50 in the data set on LNCaP was found to be 129 µM; in the data set with CWR22R it was 133 µM.
Regarding `NC(=O)NCCC[C@H](NC(=O)CCC(=O)NCCCC[C@H](NC(=O)N[C@@H](CCC(=O)O)C(=O)O)C(=O)O)C(=O)N1CCN(C(=O)c2cc(Cc3n[nH]c(=O)c4ccccc34)ccc2F)CC1`, the CC50 with PC-3 was more than 1000 µM. Also, the CC50 at 72 h in data set [1] is more than 1000 µM. Moreover, the figures for the IC50 in the data set with LNCaP and with CWR22R were 242 µM and 265 µM, respectively.
Consider `CC[C@@H](C)[C@H](NC(=O)CCC(=O)NCCCC[C@H](NC(=O)N[C@@H](CCC(=O)O)C(=O)O)C(=O)O)C(=O)N1CCN(C(=O)c2cc(Cc3n[nH]c(=O)c4ccccc34)ccc2F)CC1`, for which, in the data set with PC-3, the CC50 was more than 1000 µM. For the same molecule, the CC50 at 72 h in data set [1] was more than 1000 µM. In addition, the values for the IC50 with LNCaP and in the data set on CWR22R were 135 µM and 126 µM, respectively.
For the molecule `O=C(O)CC[C@H](NC(=O)N[C@@H](CCCCNC(=O)N1CCN(C(=O)c2cc(Cc3n[nH]c(=O)c4ccccc34)ccc2F)CC1)C(=O)O)C(=O)O`, the CC50 in the data set on PC-3 is more than 1000 µM. The CC50 at 72 h in data set [1] is more than 1000 µM. Further, the IC50 with LNCaP worked out at 251 µM; with CWR22R, 314 µM.

For the origin of these results see ChEMBL document CHEMBL6092215, “A Prostate-Specific Membrane Antigen-Targeting Small Molecule-Drug Conjugate Strategy to Overcome the Hematological Toxicity of Olaparib” (J Med Chem, 2024).
